Inconclusive results are not listed.

T/C data for three compounds are collected here from PubChem BioAssay AID206 (DTP/NCI, 2004).

The test system of the test is nude mice, HT29 intrarenal xenograft, tumor weight T/C. As to the kind of experiment: NCI In Vivo Anticancer Drug Screen. Data for tumor model HT29;CX-1 Human Adenocarcinoma (MER+) (intrarenal inoculation) in NU/NU Swiss (nude) mice. The conditions noted are these: endpoint: mean tumor weight change, schedule: Q04DX004 (sc), higher = larger tumour. Put shortly: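 Compounds were given to mice carrying transplantable tumors; a vehicle-dosed group served as control. The endpoint measured in each group was compared as a T/C quotient.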

As to `COc1ccc2[nH]c3ccc4cc[n+](CCN5CCC(C6CCN(CC[n+]7ccc8ccc9[nH]c%10ccc(OC)cc%10c9c8c7)CC6)CC5)cc4c3c2c1`, the T/C (dose: 150.0 mg/kg/injection, vehicle: Klucel (hydroxypropylcellulose) (HPC)) was 194 % of control; the T/C (dose: 300.0 mg/kg/injection, vehicle: Klucel (hydroxypropylcellulose) (HPC)) is 189 % of control; the T/C (dose: 600.0 mg/kg/injection, vehicle: Klucel (hydroxypropylcellulose) (HPC)) is 83 % of control.

As to `O=C(NO)c1ccc(O)c(O)c1`, the T/C (dose: 200.0 mg/kg/injection, vehicle: water) is 52 % of control and the T/C (dose: 400.0 mg/kg/injection, vehicle: water) is 86 % of control.

As for `OCC12COCN1COC2`, the T/C is, setting by setting: (dose: 150.0 mg/kg/injection, vehicle: saline) 88 % of control; (dose: 300.0 mg/kg/injection, vehicle: saline) 76 % of control; (dose: 600.0 mg/kg/injection, vehicle: saline) 94 % of control; (dose: 1200.0 mg/kg/injection, vehicle: saline) 90 % of control.
